SMILES strings stand for the structures. Where a name gives a salt, the structure may show the parent alone.

Tested on in one series: not given
Assay: not given
Settings: not given
One may read the melting point as the temperature of the solid-liquid transition. On to `CC(C)(CNC(=O)CSCC(=O)O)SN=O` [Example 5, 2-((N-(2-Methyl-2-(nitrosothio)propyl)carbamoyl)methylthio)acetic acid], for which the melting point lay within 47 to 51 °C.

The compound `CC1(C)c2ccccc2C(C)(C)C1(CC#N)SN=O` [Example 4, 2-(1,1,3,3-Tetramethyl-2-(nitrosothio)indan-2-yl)ethanenitrile] returned a melting point of 67 to 69 °C.

Compound `COc1ccc(C(=O)OCCC2(SN=O)C3CC4CC(C3)CC2C4)cc1` (stereo not drawn) [Example 31, 2-(2-(Nitrosothio)adamantan-2-yl)ethyl 4-methoxybenzoate] returned a melting point of 100 to 101 °C.

`CC(C)(C)OC(=O)CC1(SN=O)C2CC3CC(C2)CC1C3` (stereo not drawn) [Example 29, tert-Butyl 2-(2-(nitrosothio)adamantan-2-yl)acetate] had a melting point of 85 to 87 °C.

As to `O=NSC1(C2OCCO2)CCCCC1` [Example 45b, 2(1-Nitrosomercaptocyclohex-1-yl)-1,3-dioxolane], the melting point was 37 to 39 °C.

Consider `CC(C)(CNC(=O)C(C)(C)CCC(=O)O)SN=O` [Example 27b, 4-Methyl-4-(N-(2-methyl-2-(nitrosothio)propyl)carbamoyl)pentanoic acid], for which the melting point is 93 to 96 °C.

Turning to `CC(C)(CN1C(=O)NC(=O)C1=O)SN=O` [Example 21c, 1-(2-Methyl-2-(nitrosothio)propyl)imidazolidine-2,4,5-trione], the melting point is 80 to 82 °C.

Take `CC12CCC(C1)C(C)(C)C2(CCO)SN=O` (stereo not drawn) [Example 7, 2-(1,3,3-Trimethyl-2-(nitrosothio)bicyclo(2.2.1)hept-2-yl)ethan-1-ol]: the melting point was 81 to 85 °C.

In turn, `CC(C)(C)C(CC#N)(SN=O)C(C)(C)C` [Example 15, 3-(tert-Butyl)-4,4-dimethyl-3-(nitrosothio)pentanenitrile] came in with a melting point of 92 to 93 °C.

The compound `CSc1nccc(NCC(C)(C)SN=O)n1` [Example 18c, (2-Methyl-2-(nitrosothio)propyl)(2-methylthiopyrimidin-4-yl)amine] displayed a melting point of 77 to 79 °C.

The next series has as its system human coronary artery smooth muscle cells (CASMC). Kind of series: Vascular Smooth Muscle Cell (SMC) Antiproliferation Assay. Particulars: CASMC; viable cell count (Trypan Blue) ~68 hr after compound addition; nitrosylated (nitrosothiol) compound; read-out: IC 50 μM, Nitrosylated Compound (inhibition of proliferation of vascular smooth muscle cells). The format is cell-based. On the procedure:
The cells used in this assay were-human coronary artery smooth-muscle cells (CASMC) supplied by Clonetics Corp. (San Diego, Calif.).
Stock solutions of the test compounds were prepared just prior to addition to the cells by dissolving in ethanol at a concentration of 1000 times the highest concentration to be assayed. This stock solution was diluted, as required, with ethanol to lower concentrations. […] Control cultures received 2 μL of ethanol per well (n=4). On the following morning, the cultures were examined microscopically and their condition recorded. On the third day after test compound addition (˜68 hr), the cultures were examined microscopically again and the viable cells counted with an hemacytometer following trypsinization with 0.25% trypsin-1 mM EDTA. Trypan Blue dye exclusion was used to discriminate between viable and dead cells.
Regarding `CC1(SN=O)CN2CCC1CC2` (stereo not drawn) [Example 36c, (3-Methylquinudidin-3-yl)nitrosothio hydrochlroide], the IC50 worked out at 22 µM.

As for `C[N+](C)(C)CCNC(=O)CC1(SN=O)C2CC3CC(C2)CC1C3` (stereo not drawn) [Example 44c, 2-(2-(Nitrosothio)adamantan-2-yl)-N-(2-(trimethylammonium)ethyl)-acetamide chloride], the IC50 was found to be 33.5 µM.

`C[N+](C)(CCNC(=O)CC1(SN=O)C2CC3CC(C2)CC1C3)Cc1ccccc1` (stereo not drawn) [Example 43c, N-(2-(Dimethylbenzylammonium)ethyl)-2-(2-(nitrosothio)adamantan-2-yl)acetamide chloride]: the IC50 turned out to be 27 µM.

`CC1(SN=O)C2CC3CC(C2)CC1C3` (stereo not drawn) [Example 25c, (2-Methyladamantan-2-yl)nitrosothio]: the IC50 is 33 µM.

Take `COP(=O)(CC(SN=O)(C1CC1)C1CC1)OC` [Example 47b, Dimethyl (2,2-dicyclopropyl-2-(nitrosothio)ethyl)phosphonate]: the IC50 turned out to be 41 µM.

In the case of `O=NSC1(CO)CCN(C(=O)OCc2ccccc2)CC1` [Example 26e, Phenylmethyl 4-(hydroxymethyl)-4-(nitrosothio)piperidinecarboxylate], the IC50 is 33 µM.

Turning to `O=NSC1(CC(=O)NCCO)C2CC3CC(C2)CC1C3` (stereo not drawn) [Example 34d, N-(2-Hydroxyethyl)-2-(2-(nitrosthio)adamantan-2-yl)acetamide], the IC50 amounted to 23 µM.

Staying with this series, now noted: CASMC; viable cell count (Trypan Blue) ~68 hr after compound addition; non-nitrosylated (sulfhydryl) compound.
Turning to `CC(C)(S)CN` [Example 18a, 2-Mercapto-2-methyl-1-propylamine], the “IC 50 μM, Non-nitrosylated Compound (inhibition of proliferation of vascular smooth muscle cells)” value was “slight inhibition”.

Regarding `C[N+](C)(CCNC(=O)CC1(S)C2CC3CC(C2)CC1C3)Cc1ccccc1.[Cl-]` (stereo not drawn) [Example 43b, N-(2-(Dimethylbenzylammonium)ethyl)-2-(2-sulfanyladamantan-2-yl)acetamide chloride], the “IC 50 μM, Non-nitrosylated Compound (inhibition of proliferation of vascular smooth muscle cells)” value is on record as “no inhibition”.

With `SC1(C2OCCO2)CCCCC1` [Example 45a, 2(1-Mercaptocyclohex-1-yl)-1,3-dioxolane], the “IC 50 μM, Non-nitrosylated Compound (inhibition of proliferation of vascular smooth muscle cells)” value is reported as “slight inhibition”.

Turning to `NC(=O)CC1(S)C2CC3CC(C2)CC1C3` (stereo not drawn) [Example 12c, 2-(2-Sulfanyladamantan-2-yl)acetamide], the “IC 50 μM, Non-nitrosylated Compound (inhibition of proliferation of vascular smooth muscle cells)” value was “slight inhibition”.

Regarding `C[N+](C)(C)CCNC(=O)CC1(S)C2CC3CC(C2)CC1C3.[Cl-]` (stereo not drawn) [Example 44b, 2-(2—Sulfanyladamantan-2-yl)-N-(2(trimethylammonium)ethyl)acetamide chloride], the “IC 50 μM, Non-nitrosylated Compound (inhibition of proliferation of vascular smooth muscle cells)” value is “no inhibition”.

Take `CC(C)(S)CN1C(=O)NC(=O)C1=O` [Example 21b, 1-(2-Methyl-2-sulfanylpropyl)imidazolidine-2,4,5-trione]: the “IC 50 μM, Non-nitrosylated Compound (inhibition of proliferation of vascular smooth muscle cells)” value is “no inhibition”.

`SC1(C2OCCCO2)CCCCC1` [Example 46a, 2-(1-Mercaptocyclohex-1-yl)-1,3-dioxane]: the “IC 50 μM, Non-nitrosylated Compound (inhibition of proliferation of vascular smooth muscle cells)” value was “no inhibition”.

As to `CC1(S)CN2CCC1CC2.Cl` (stereo not drawn) [Example 36b, 3-Methylquinudidine-3-thiol hydrochloride], the “IC 50 μM, Non-nitrosylated Compound (inhibition of proliferation of vascular smooth muscle cells)” value is reported as “no inhibition”.

As for `O=C(OCc1ccccc1)N1CCC(S)(CO)CC1` [Example 26d, Phenylmethyl 4-(hydroxymethyl)-4-sulfanylpiperidinecarboxylate], the “IC 50 μM, Non-nitrosylated Compound (inhibition of proliferation of vascular smooth muscle cells)” value is on record as “no inhibition”.

Consider `O=C(CC1(S)C2CC3CC(C2)CC1C3)NCCO` (stereo not drawn) [Example 34c, N-(2-Hydroxyethyl)-2-(2-sulfanyladamantan-2-yl)acetamide], for which the “IC 50 μM, Non-nitrosylated Compound (inhibition of proliferation of vascular smooth muscle cells)” value is given as “no inhibition”.

As for `CC(C)(S)CNC(=O)NCC(C)(C)S` [Example 20c, N-(2-Methyl-2-sulfanylpropyl)((2-methyl-2-sulfanylpropyl)amino)carboxade], the “IC 50 μM, Non-nitrosylated Compound (inhibition of proliferation of vascular smooth muscle cells)” value was “slight inhibition”.

As to `COP(=O)(CC(S)(C1CC1)C1CC1)OC` [Example 47a, Dimethyl (2,2-dicyclopropyl-2-mercaptoethyl)phosphonate], the “IC 50 μM, Non-nitrosylated Compound (inhibition of proliferation of vascular smooth muscle cells)” value is given as “slight inhibition”.

Staying with this series, now noted: CASMC; viable cell count (Trypan Blue) ~68 hr after compound addition; non-nitrosylated (sulfhydryl) compound; read-out: IC 50 μM, Non-nitrosylated Compound (inhibition of proliferation of vascular smooth muscle cells).
As to `CC(C)(S)CNC(=O)C(C)(C)CCC(=O)O` [Example 27a], the IC50 was found to be 78 µM.

Turning to `CC(C)(S)CN1C(=O)C2C3C=CC(C3)C2C1=O` (stereo not drawn) [Example 11a, 4-Aza-4-(2-methyl-2-sulfanylpropy)tricyclo(5.2.1.0<2,6>)dec-8-ene-3,5-dione], the IC50 is 80 µM.

Staying with this series, now noted: Homo sapiens, 68 h, read-out: IC 50 μM, Nitrosylated Compound (inhibition of proliferation of vascular smooth muscle cells).
Turning to `O=NSC1(CC(=O)OCC(CO[N+](=O)[O-])(CO[N+](=O)[O-])CO[N+](=O)[O-])C2CC3CC(C2)CC1C3` (stereo not drawn) [Example 37, 2,2-Bis((nitrooxy)methyl)-3-(nitrooxy)propyl 2-(2-(nitrosothio)adamantan-2-yl)acetate], the IC50 came to 5 µM.

Staying with this series, now noted: Homo sapiens; CASMC; viable cell count (Trypan Blue) ~68 hr after compound addition; nitrosylated (nitrosothiol) compound; read-out: IC 50 μM, Nitrosylated Compound (inhibition of proliferation of vascular smooth muscle cells).
In the case of `CC(C)(CNC(=O)NCC(C)(C)SN=O)SN=O` [Example 20d, N-(2-Methyl-2-(nitrosothio)propyl)((2-methyl-2-(nitrosothio)propyl)amino)carboxamide], the IC50 stood at 28 µM.

On to `CC(C)(CNC(=O)C(C)(C)CO[N+](=O)[O-])SN=O` [Example 38b, 2,2-Dimethyl-N-(2-methyl-2-(nitrosothio)propyl)-3-(nitrooxy)propanamide], for which the IC50 came out at 50 µM.

For `CSc1nccc(NCC(C)(C)S)n1` [Example 18b, 2-Methyl-1-((2-methylthiopyrimidin-4-yl)amino)propane-2-thiol], the IC50 came out at 26 µM.

For `CC(C)(CN1C(=O)C2C3C=CC(C3)C2C1=O)SN=O` (stereo not drawn) [Example 11b, 4-Aza-4-(2-methyl-2-(nitrosothio)propyl)tricyclo(5.2.1.0<2,6>)dec-8-ene-3,5-dione], the IC50 was determined as 16 µM.

`CC(C)(C)OC(=O)CC1(SN=O)C2CC3CC(C2)CC1C3` (stereo not drawn) [Example 29, tert-Butyl 2-(2-(nitrosothio)adamantan-2-yl)acetate]: the IC50 came to 11 µM.

Take `O=NSC1(C2OCCO2)CCCCC1` [Example 45b, 2(1-Nitrosomercaptocyclohex-1-yl)-1,3-dioxolane]: the IC50 amounted to 42 µM.

In the case of `CC(C)(CNC(=O)C(C)(C)CCC(=O)O)SN=O` [Example 27b, 4-Methyl-4-(N-(2-methyl-2-(nitrosothio)propyl)carbamoyl)pentanoic acid], the IC50 came out at 34 µM.

Consider `CC(C)(CN1C(=O)NC(=O)C1=O)SN=O` [Example 21c, 1-(2-Methyl-2-(nitrosothio)propyl)imidazolidine-2,4,5-trione], for which the IC50 was found to be 12 µM.

With `CC(C)(CN)SN=O` [Example 38a, 2-Methyl-2-(nitrosothio)propylamine hydrochloride], the IC50 is 40 to 60 µM.

In the case of `NC(=O)CC1(SN=O)C2CC3CC(C2)CC1C3` (stereo not drawn) [Example 12d, 2-(2-(Nitrosothio)adamantan-2-yl)acetamide], the IC50 was 12 µM.

The series is the same for the next values; noted with them: Homo sapiens; CASMC; viable cell count (Trypan Blue) ~68 hr after compound addition; non-nitrosylated (sulfhydryl) compound; read-out: IC 50 μM, Non-nitrosylated Compound (inhibition of proliferation of vascular smooth muscle cells).
With `CC(C)(S)CNC(=O)CCCC(=O)O` [Example 19a, 4-(N-(2-Methyl-2-sulfanylpropyl)carbamoyl)butanoic acid], the IC50 is over 200 µM.

As for `CC(C)(C)OC(=O)CC1(S)C2CC3CC(C2)CC1C3` (stereo not drawn) [Example 12a, tert-Butyl-2-(2-sulfanyladamant-2-yl)acetate], the IC50 came to 25 µM.

As to `CC1(S)C2CC3CC(C2)CC1C3` (stereo not drawn) [Example 25b, 2-Methyladamantane-2-thiol], the IC50 worked out at 65 µM.

The record behind these values is patent US20030203915A1, “Nitric oxide donors, compositions and methods of use related applications” (priority 2002, published 2003).
